Results published in paper PMC10064330, “Reversible Dual-Covalent Molecular Locking of the 14-3-3/ERRγ Protein–Protein Interaction as a Molecular Glue Drug Discovery Approach” (Journal of the American Chemical Society, 2023).

Target: T1, 14-3-3γ/ERRγ complex (Homo sapiens, UniProt P61981+P62508)
T1 construct: made in house; host or cells: E. coli NiCo21 (DE3)
Assay: FA compound titration in HEK293 cell lysate
Assay type: binding
Settings: 2 mg mL^–1 HEK293 cell lysate, 5 μM 14-3-3γ, 100 nM ERRγ peptide; read-out: half-maximal complex concentration (CC50)
Procedure: The cell represents a complex biochemical environment composed of a high reducing potential, a pool of potential nucleophiles, and competing 14-3-3 interaction partners. To investigate molecular lock-induced complex formation in a reactive environment, we first investigated binary 14-3-3/ERRγ formation in the HEK293 cell lysate. Here, the HEK293 cell lysate was titrated to the preformed 14-3-3γ/ERRγ complex in an FA assay and incubated overnight (Figure S25a–c). […] Next, we investigated molecular lock 5-induced complex formation (Figures S25 and S26). […] Moreover, early observed cell lysate-induced abolishment of the 14-3-3γ/ERRγ complex formation was almost completely recovered upon addition of 5, to similar complex concentrations to that in the absence of the lysate. […]
Figure S25. […] (d -e) Fluorescence anisotropy studies of compound 5 (right) titrations or DMSO as negative control (left) to a preformed complex of 14 -3-3γ (5 µM, 0.16 mg/mL) and fluorescein labelled ERRγ peptide (100 nM) at various concentrations HEK293 cell lysate (up to 2 mg/mL). […]
Figure S26. […] Fluorescence anisotropy studies of compound 5 titrations (or DMSO as negative control) to a preformed complex of 14-3-3γ (5 µM) and fluorescein labelled ERRγ peptide (100 nM). Assay is performed in presence of various concentrations HEK293 cell lysate (up to 2 mg/mL) and is measured over time (every hour for 12 hours). […]

T1 sequence (P61981 whole entry, other chains not shown): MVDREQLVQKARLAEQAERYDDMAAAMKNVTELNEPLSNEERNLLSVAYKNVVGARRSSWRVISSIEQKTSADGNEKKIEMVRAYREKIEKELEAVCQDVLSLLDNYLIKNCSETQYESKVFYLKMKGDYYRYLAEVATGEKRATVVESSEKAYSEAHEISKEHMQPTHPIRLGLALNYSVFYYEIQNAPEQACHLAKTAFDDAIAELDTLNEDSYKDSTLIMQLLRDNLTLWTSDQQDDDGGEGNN

## CN(C)CCSSCCN(C)C(=O)c1ccc(C=O)c(F)c1 [compound 5]
  CC50: 240 µM
